Experiments:
[1] = system: J553x(HIIIAxA188) null and transgenic corn; test: Fipronil/Pyraclostrobin study, initial trial: seed treatment, greenhouse growth, LemnaTec Scanalyzer imaging and harvest; type: in vivo, maize (Zea Mays L.); settings: for Internode 1 length / Internode 2 length / Internode 3 length: seed treatment; for Fresh Weight: hand-collected
Experimental: (§1) J553x(HIIIAxA188) null and transgenic corn seeds of the T2 generation were treated with deionized water (Blank), 200 grams fipronil, 10 grams pyraclostrobin (F500), and 200 grams fipronil+10 grams pyraclostrobin; all formulation rates were grams/100 kg seed. Every formulation was applied to approximately 80 seeds. The formulation was pipetted into a 125 ml flask along the sides and bottom of the flask before adding the seeds and shaking the flask for 30 seconds. The coated seeds were then removed from the flask and placed in a plastic dish for drying.
(§2) Seventy-five 3-L pots per treatment (Blank, fipronil, pyraclostrobin, and fipronil+pyraclostrobin) were filled with potting media, labeled with colored stakes, and given a unique barcode. One seed per pot was planted at a depth of approximately 2 cm and covered with media. The media was lightly watered to imbibe the seeds, while allowing for ample oxygen exchange and so that the chemical coatings on the seeds remained intact. After planting, the pots were randomly distributed into three replicate blocks (1 bench=1 block), each with 25 plants of every treatment.
(§3) The plants were maintained in a greenhouse under optimal, well-watered conditions (80-90% field capacity) upon emergence. Supplemental nutrients were administered every third day during watering. The greenhouse temperature was maintained at 30° C., relative humidity at 75%, and light at 350 μmol m^−2s^−1, in a 15-hour day/9-hour night photoperiod. Supplemental lighting was provided using metal-halide lights. Once per week, the pots were randomly mixed within each block.
(§4) On day 21, the plants were imaged to collect the phenotypic data as described in the Imaging Procedures section. Leaves were sampled for transgene copy number on day 25 to identify the null and transgenic plants. On day 28, the plants were imaged and then harvested to collect fresh weight. The presence of the transgene was determined by the Taqman molecular analysis technique. Differences in the phenotypic data collected during the imaging process and in fresh weight among the four treatments and between the null and transgenic plants were assessed. The chemical by transgenic interactions were determined.
(§5) Imaging of the plants was facilitated using a LemnaTec Scanalyzer (Würselen, Germany), which includes a conveyor belt, an imaging station, a watering station, and computers for collecting, processing, and storing the image data. The cameras have a resolution of 1280×960 pixels and operate in 24-bit color.
(§6) The plants were manually transferred by block onto the conveyor system of the scanalyzer. Each plant was then moved through the imager automatically. At the imaging station, cameras collected the top view image and two side view images. The side view images were the transverse view and the view parallel with the plane of the plant.
(§7) As described in the formula (see Appendix A), the scanalyzer calculates plant volume as a number of pixels. To assign a physiologically meaningful value to the volume measurements, a separate experiment was conducted. The plants were scanned with the scanalyzer then harvested. The plant material was placed into a graduated cylinder filled to a known volume with water. The difference between the water plus plant material and water alone provided a known plant volume in mL.
(§8) Using the LemnaTec scanalyzer, we collected stem width; stalk volume; top, transverse, and parallel view plant areas; top, transverse, and parallel view green and yellow pixel counts; stem length; leaf angles and internode lengths through leaf 5; plant width and height; total leaf length; and total plant length.
(§9) Fresh Weight—A measurement of the fresh weight of the plant in grams. Hand-collected fresh weight is measured by harvesting the plant and weighing it on a balance. LemnaTec fresh weight is calculated by the scanalyzer based on plant volume and plant age. The zoom angles of the camera lenses are normalized using a calibration table. […]

[2] = system: J553x(HIIIAxA188) null and transgenic corn; test: Fipronil/Pyraclostrobin study, second trial: seed treatment, greenhouse growth, LemnaTec Scanalyzer imaging; type: in vivo, maize (Zea Mays L.)
Experimental: as §1, §2, §3, §4, §5, §6, §7, §8, §9

COC(=O)N(OC)c1ccccc1COc1ccn(-c2ccc(Cl)cc2)n1 [F500, pyraclostrobin]
# Fully Expanded Leaves ([1]; Avg): 3.0 | Leaf Angle 0 ([1]; Avg): 46.6 degrees | Leaf Angle 1 ([1]; Avg): 37.4 degrees | Plant Volume ([1]; Avg): 6.43E+06 pixels | Stem Length ([1]; Avg): 104.4 cm | stalk area from the transverse view, Pixel Count ([1]; Avg): 4724 pixels | Internode 1 length ([1]; Avg of null and transgenic): 34.3 cm | Internode 2 length ([1]; Avg of null and transgenic): 38.4 cm | Internode 3 length ([1]; Avg of null and transgenic): 40.7 cm | # Fully Expanded Leaves ([1]; Null plants): 2.9 | Leaf Angle 0 ([1]; Null plants): 39.2 degrees | Leaf Angle 1 ([1]; Null plants): 36.5 degrees | Plant Volume ([1]; Null plants): 6.18E+06 pixels | Stem Length ([1]; Null plants): 97.2 cm | stalk area from the transverse view, Pixel Count ([1]; Null plants): 4725 pixels | Internode 1 length ([1]; Null plants): 32.5 cm | Internode 2 length ([1]; Null plants): 36.0 cm | Internode 3 length ([1]; Null plants): 38.8 cm | Internode 1 length ([1]; Trans (transgenic) plants): 35.9 cm | Internode 2 length ([1]; Trans (transgenic) plants): 40.4 cm | Internode 3 length ([1]; Trans (transgenic) plants): 42.1 cm | # Fully Expanded Leaves ([1]; Trans plants): 3.1 | Leaf Angle 0 ([1]; Trans plants): 52.5 degrees | Leaf Angle 1 ([1]; Trans plants): 38.2 degrees | Plant Volume ([1]; Trans plants): 6.63E+06 pixels | Stem Length ([1]; Trans plants): 110.2 cm | stalk area from the transverse view, Pixel Count ([1]; Trans plants): 4723 pixels | Fresh Weight ([1]; Avg): 155.3 grams | Fresh Weight ([1]; Null plants): 155.7 grams | Fresh Weight ([1]; Trans plants): 155.0 grams | Dark Green Count ([1]; parallel view, Avg): 14884.7 pixels | Medium Green Count ([1]; parallel view, Avg): 6153.1 pixels | Plant Area ([1]; parallel view, Avg): 23089.7 pixels | Yellow Count ([1]; parallel view, Avg): 2051.9 pixels | Dark Green Count ([1]; parallel view, Null plants): 14727.7 pixels | Medium Green Count ([1]; parallel view, Null plants): 5691.8 pixels | Plant Area ([1]; parallel view, Null plants): 22426.2 pixels | Yellow Count ([1]; parallel view, Null plants): 2006.6 pixels | Dark Green Count ([1]; parallel view, Trans plants): 15010.4 pixels | Medium Green Count ([1]; parallel view, Trans plants): 6522.1 pixels | Plant Area ([1]; parallel view, Trans plants): 23620.6 pixels | Yellow Count ([1]; parallel view, Trans plants): 2088.1 pixels | Medium Green Count ([1]; top view, Avg): 18542 pixels | Medium Green Count ([1]; top view, Null plants): 17893 pixels | Medium Green Count ([1]; top view, Trans plants): 19062 pixels | Medium Green Count ([1]; transverse view, Avg): 9584.5 pixels | Yellow Count ([1]; transverse view, Avg): 4227.2 pixels | Medium Green Count ([1]; transverse view, Null plants): 9303.7 pixels | Yellow Count ([1]; transverse view, Null plants): 4081.7 pixels | Medium Green Count ([1]; transverse view, Trans plants): 9809.2 pixels | Yellow Count ([1]; transverse view, Trans plants): 4343.5 pixels | Plant volume, significance of treatment [2]: significant at 99% | dark green pixel count, significance of treatment [2]: significant at 99% | Broad Side Drk Grn ([2]; Avg): 26984.96 pixels | Broad Side Plnt Area ([2]; Avg): 38169.74 pixels | Calc Fresh Weight ([2]; Avg): 105.47 g | Narrow Side Drk Grn ([2]; Avg): 27393.61 pix | Plant Volume ([2]; Avg): 10.47 M pixels | Top Drk Grn ([2]; Avg): 59991.92 pixels | Broad Side Drk Grn ([2]; Null plants): 26088.87 pixels | Broad Side Plnt Area ([2]; Null plants): 36740.30 pixels | Calc Fresh Weight ([2]; Null plants): 100.53 g | Narrow Side Drk Grn ([2]; Null plants): 26394.93 pix | Plant Volume ([2]; Null plants): 9.90 M pixels | Top Drk Grn ([2]; Null plants): 57676.78 pixels | Broad Side Drk Grn ([2]; Trans plants): 27881.04 pixels | Broad Side Plnt Area ([2]; Trans plants): 39599.17 pixels | Calc Fresh Weight ([2]; Trans plants): 110.41 g | Narrow Side Drk Grn ([2]; Trans plants): 28392.28 pix | Plant Volume ([2]; Trans plants): 11.04 M pixels | Top Drk Grn ([2]; Trans plants): 62307.07 pixels | photosynthetic health (in words) ([2]; in general): enhanced | plant size (in words) ([2]; in general): enhanced

Reference: patent US20100093715A1, “Plant productivity enhancement by combining chemical agents with transgenic modifications” (BASF SE, priority 2007, published 2010)
